# Test results: PubChem BioAssay AID1963848 (Molecular Pharmacology Branch, DTP, NCI, 2024)
# System: 379773-124-R-J2-PDC spheroid viability
# Experiment: Anticancer human tumor 379773-124-R-J2-PDC patient-derived endometrial carcinoma cell line growth inhibition [POLQ]
# Settings: spheroids with HUVEC and MSC; for IC50: curve of first compound; for viability, T/C: stronger effect = lower value
# How it was run: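 Growth inhibition in 3D: complex spheroids (tumor PDC, HUVEC, MSC) treated with POLQ inhibitor combinations; where Cmax unknown, highest tested concentration 10 microM, except SN-38 at 1 microM.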
# [1] = second compound 0.0316 µM, first compound 0.00316 µM
# [2] = second compound 0.0316 µM, first compound 0.01 µM
# [3] = second compound 0.0316 µM, first compound 0.0316 µM
# [4] = second compound 0.0316 µM, first compound 0.1 µM
# [5] = second compound 0.0316 µM, first compound 0.316 µM
# [6] = second compound 0.0316 µM, first compound 1 µM
# [7] = second compound 0.1 µM, first compound 0.00316 µM
# [8] = second compound 0.1 µM, first compound 0.01 µM
# [9] = second compound 0.1 µM, first compound 0.0316 µM
# [10] = second compound 0.1 µM, first compound 0.1 µM
# [11] = second compound 0.1 µM, first compound 0.316 µM
# [12] = second compound 0.1 µM, first compound 1 µM
# [13] = second compound 0.316 µM, first compound 0.00316 µM
# [14] = second compound 0.316 µM, first compound 0.01 µM
# [15] = second compound 0.316 µM, first compound 0.0316 µM
# [16] = second compound 0.316 µM, first compound 0.1 µM
# [17] = second compound 0.316 µM, first compound 0.316 µM
# [18] = second compound 0.316 µM, first compound 1 µM
# [19] = second compound 1 µM, first compound 0.00316 µM
# [20] = second compound 1 µM, first compound 0.01 µM
# [21] = second compound 1 µM, first compound 0.0316 µM
# [22] = second compound 1 µM, first compound 0.1 µM
# [23] = second compound 1 µM, first compound 0.316 µM
# [24] = second compound 1 µM, first compound 1 µM
# [25] = second compound 3.16 µM, first compound 0.00316 µM
# [26] = second compound 3.16 µM, first compound 0.01 µM
# [27] = second compound 3.16 µM, first compound 0.0316 µM
# [28] = second compound 3.16 µM, first compound 0.1 µM
# [29] = second compound 3.16 µM, first compound 0.316 µM
# [30] = second compound 3.16 µM, first compound 1 µM
# [31] = second compound 10 µM, first compound 0.00316 µM
# [32] = second compound 10 µM, first compound 0.01 µM
# [33] = second compound 10 µM, first compound 0.0316 µM
# [34] = second compound 10 µM, first compound 0.1 µM
# [35] = second compound 10 µM, first compound 0.316 µM
# [36] = second compound 10 µM, first compound 1 µM
# 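Note: spheroids exposed to drugs for seven days before readout.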
# 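Throughout, for viability, T/C: percent viability relative to DMSO vehicle control taken as 100%.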
smiles,measurement,setting,value
C=CCn1c(=O)c2cnc(Nc3ccc(N4CCN(C)CC4)cc3)nc2n1-c1cccc(C(C)(C)O)n1 + Nc1ccc(C#CCN(C(=O)Cc2ncc(C(F)(F)F)cc2C(F)(F)F)c2ccc(F)cc2)nn1,IC50,second compound 0.0316 µM,447 nM
same,IC50,second compound 0.1 µM,488 nM
same,IC50,second compound 0.316 µM,436 nM
same,IC50,second compound 1 µM,447 nM
same,IC50,second compound 3.16 µM,499 nM
same,IC50,second compound 10 µM,451 nM
same,"viability, T/C",[1],90.6%
same,"viability, T/C",[2],101%
same,"viability, T/C",[3],93.7%
same,"viability, T/C",[4],104%
same,"viability, T/C",[5],70.3%
same,"viability, T/C",[6],2.92%
same,"viability, T/C",[7],95.5%
same,"viability, T/C",[8],99.2%
same,"viability, T/C",[9],107%
same,"viability, T/C",[10],111%
same,"viability, T/C",[11],78.1%
same,"viability, T/C",[12],3.57%
same,"viability, T/C",[13],95.7%
same,"viability, T/C",[14],91.7%
same,"viability, T/C",[15],97%
same,"viability, T/C",[16],92.4%
same,"viability, T/C",[17],68.1%
same,"viability, T/C",[18],3.12%
same,"viability, T/C",[19],103%
same,"viability, T/C",[20],103%
same,"viability, T/C",[21],100%
same,"viability, T/C",[22],97.5%
same,"viability, T/C",[23],69.8%
same,"viability, T/C",[24],3.73%
same,"viability, T/C",[25],113%
same,"viability, T/C",[26],99.3%
same,"viability, T/C",[27],96.1%
same,"viability, T/C",[28],105%
same,"viability, T/C",[29],80.9%
same,"viability, T/C",[30],3.02%
same,"viability, T/C",[31],101%
same,"viability, T/C",[32],88.8%
same,"viability, T/C",[33],92.3%
same,"viability, T/C",[34],88.6%
same,"viability, T/C",[35],71.4%
same,"viability, T/C",[36],2.81%
COc1ccc([C@@H](O)c2cc(-c3ncnc4cc(N5CCOCC5)ccc34)c(F)cc2Cl)nn1 + COC1C(OC(N)=O)C(O)C(Oc2ccc3c(O)c(NC(=O)c4ccc(O)c(CC=C(C)C)c4)c(=O)oc3c2C)OC1(C)C,IC50,second compound 0.0316 µM,7230 nM
same,IC50,second compound 0.1 µM,9890 nM
same,IC50,second compound 0.316 µM,7300 nM
same,IC50,second compound 1 µM,8150 nM
same,IC50,second compound 3.16 µM,7850 nM
same,IC50,second compound 10 µM,7090 nM
same,"viability, T/C",[3],89.6%
same,"viability, T/C",[4],85.1%
same,"viability, T/C",[5],88.3%
same,"viability, T/C",[6],80%
same,"viability, T/C","second compound 0.0316 µM, first compound 3.16 µM",81.1%
same,"viability, T/C","second compound 0.0316 µM, first compound 10 µM",37.6%
same,"viability, T/C",[9],81.4%
same,"viability, T/C",[10],81.4%
same,"viability, T/C",[11],91.5%
same,"viability, T/C",[12],81.1%
same,"viability, T/C","second compound 0.1 µM, first compound 3.16 µM",91.1%
same,"viability, T/C","second compound 0.1 µM, first compound 10 µM",49.7%
same,"viability, T/C",[15],92.6%
same,"viability, T/C",[16],82.1%
same,"viability, T/C",[17],79.1%
same,"viability, T/C",[18],81.6%
same,"viability, T/C","second compound 0.316 µM, first compound 3.16 µM",75.1%
same,"viability, T/C","second compound 0.316 µM, first compound 10 µM",40.4%
same,"viability, T/C",[21],74.2%
same,"viability, T/C",[22],83.1%
same,"viability, T/C",[23],83.9%
same,"viability, T/C",[24],87.8%
same,"viability, T/C","second compound 1 µM, first compound 3.16 µM",82.1%
same,"viability, T/C","second compound 1 µM, first compound 10 µM",43.1%
same,"viability, T/C",[27],81%
same,"viability, T/C",[28],83.3%
same,"viability, T/C",[29],96.7%
same,"viability, T/C",[30],77.5%
same,"viability, T/C","second compound 3.16 µM, first compound 3.16 µM",78.5%
same,"viability, T/C","second compound 3.16 µM, first compound 10 µM",42.5%
same,"viability, T/C",[33],80.3%
same,"viability, T/C",[34],75.8%
same,"viability, T/C",[35],82.6%
same,"viability, T/C",[36],80.1%
same,"viability, T/C","second compound 10 µM, first compound 3.16 µM",95.8%
same,"viability, T/C","second compound 10 µM, first compound 10 µM",35.9%
CC[C@@]1(O)C(=O)OCc2c1cc1n(c2=O)Cc2cc3c(CN(C)C)c(O)ccc3nc2-1 + Nc1ccc(C#CCN(C(=O)Cc2ncc(C(F)(F)F)cc2C(F)(F)F)c2ccc(F)cc2)nn1,IC50,second compound 0.0316 µM,29.5 nM
same,IC50,second compound 0.1 µM,29 nM
same,IC50,second compound 0.316 µM,26 nM
same,IC50,second compound 1 µM,26.4 nM
same,IC50,second compound 3.16 µM,24.5 nM
same,IC50,second compound 10 µM,22.5 nM
same,"viability, T/C","second compound 0.0316 µM, first compound 0.000316 µM",96.7%
same,"viability, T/C","second compound 0.0316 µM, first compound 0.001 µM",89%
same,"viability, T/C",[1],80.7%
same,"viability, T/C",[2],96%
same,"viability, T/C",[3],47.3%
same,"viability, T/C",[4],22.3%
same,"viability, T/C","second compound 0.1 µM, first compound 0.000316 µM",90.8%
same,"viability, T/C","second compound 0.1 µM, first compound 0.001 µM",87.6%
same,"viability, T/C",[7],91.4%
same,"viability, T/C",[8],89.6%
same,"viability, T/C",[9],46.7%
same,"viability, T/C",[10],19.8%
same,"viability, T/C","second compound 0.316 µM, first compound 0.000316 µM",93%
same,"viability, T/C","second compound 0.316 µM, first compound 0.001 µM",96.3%
same,"viability, T/C",[13],102%
same,"viability, T/C",[14],86.2%
same,"viability, T/C",[15],42.6%
same,"viability, T/C",[16],20.8%
same,"viability, T/C","second compound 1 µM, first compound 0.000316 µM",100%
same,"viability, T/C","second compound 1 µM, first compound 0.001 µM",92%
same,"viability, T/C",[19],92.2%
same,"viability, T/C",[20],83.7%
same,"viability, T/C",[21],43.6%
same,"viability, T/C",[22],21.2%
same,"viability, T/C","second compound 3.16 µM, first compound 0.000316 µM",110%
same,"viability, T/C","second compound 3.16 µM, first compound 0.001 µM",90.5%
same,"viability, T/C",[25],85.8%
same,"viability, T/C",[26],85.1%
same,"viability, T/C",[27],39.6%
same,"viability, T/C",[28],18.9%
same,"viability, T/C","second compound 10 µM, first compound 0.000316 µM",94%
same,"viability, T/C","second compound 10 µM, first compound 0.001 µM",79.9%
same,"viability, T/C",[31],81.9%
same,"viability, T/C",[32],83.3%
same,"viability, T/C",[33],36%
same,"viability, T/C",[34],21.8%
